From patent US5795885A, “Method of inhibiting profileration of cells by administering an aminosterol compound” (priority 1995, dated 1998)

Experiments:
[1] = test system: stage 59-60 Xenopus tadpoles; details: 10 μg/ml in water
Murine B16 melanoma = assay: growth inhibition in vitro; type: cell-based; details: except at very high concentrations
Description: As set forth in Table 7 below, all malignant tumors evaluated in tissue culture, endothelial cells and vascular smooth muscle cells were sensitive to inhibition. Thus, compound 1436 has application in the control of growth factor dependent proliferation of many types of tissue.

[2] = test system: VX2 carcinoma implanted into the rabbit cornea; assay: tumor-induced (VX2 carcinoma) corneal neovascularization in rabbits; type: in vivo; details: ELVAX 40 P pellet
Description: The implantation of VX2 carcinoma into the rabbit cornea results in the induction of new blood vessels within several days (Tamargo et al., Cancer Research 51, 1991, 672-675). It is believed that this carcinoma secretes growth factors that stimulate new blood-vessel growth. Thus, this model is indicative in vivo evidence of therapeutic utility in the treatment of pathological disorders of vascularization, including the metastatic spread of tumors, diabetic retinopathy, macular degeneration, and rheumatoid arthritis.
This experiment followed the published protocol--tumor was implanted adjacent to a polymer containing a concentration of the agent to be evaluated. The polymer releases the agent slowly in the immediate neighborhood of the tumor, providing sustained high local concentrations of the agent. In this experiment, squalamine introduced into a pellet of ELVAX 40 P (DuPont, Wilmington, Del.) inhibited new blood vessel formation by about 60% at days 7 and 14, and by about 25% at day 21.

rabbit NHE3 = rabbit NHE3 (Oryctolagus cuniculus, UniProt P26432); details: 5 μg/ml
Method: Internal pH was measured either following acid loading or in the absence of an acid-loading challenge, with the results shown in FIGS. 1A and 1B.
Specifically, PS120 fibroblasts transfected with rabbit NHE3 were grown in supplemented Dulbecco's-modified Eagle's medium as described by Levine et al., J. Biol. Chem. 268, 1993, 25527-25535. […] For cells not acid-preloaded, the actual internal pH value was monitored as a function of time following addition of squalamine, with the results depicted in FIG. 1B.
PS120 fibroblasts transfected with rabbit NHE3 were grown and acid preloaded by exposure to 40 mM NH4 Cl as described above in conjunction with FIGS. 1A and 1B. Internal cellular pH changes expressed as the rate of pH recovery as a function of restored extracellular sodium ion concentration following exposure to 10 μg/ml of the compound were assayed with the fluorescent dye BCECF-AM as described above.

rabbit NHE1 = assay: internal pH recovery, PS120 fibroblasts transfected with rabbit NHE1 (BCECF-AM); type: cell-based; details: 5 μg/ml; acid-preloaded by 40 mM NH4Cl
Method: (§1) PS120 fibroblasts transfected with rabbit or human NHE1 were grown as described above.

human melanoma 1205Lu = assay: growth of human melanoma 1205Lu in immunocompromised RAG-1 mice; type: in vivo, RAG-1 mice (human tumor)
Description: As apparent from FIG. 5, melanoma 1205Lu develops aggressively in RAG-1 mice after implantation.

[3] = test system: PHA-stimulated human lymphocytes; assay: inhibition of mitogen (PHA)-stimulated growth of human T-cells; type: cell-based
Description: Results are tabulated below.

[4] = test system: bacteria, fungi and protozoa; details: cited from earlier work
[5] = test system: human microvascular cells; assay: endothelial cell cord formation in vitro; type: cell-based
Description: Endothelial cells have the capacity in vitro to form tubular aggregates resembling capillaries in various early stages of formation. This conversion occurs under relatively specific conditions, in which essential growth factors along with an effective substratum are provided. It has been shown that both the interaction of growth factors with the endothelial cell and its attachment to a substratum activate the NHE. The activation of this exchanger is believed to be required for subsequent morphologic transformation of the endothelial cell into a multicellular tubular structure.
To assess the effect of compounds on the cord-like structures formed by human microvascular cells when plated in the presence of VEGF (Vascular Endothelial Growth Factor) and basic fibroblast growth factor on a collagen matrix, a standard cord formation assay was used.

B16 melanoma = B16 melanoma growth in C57B mice; type: in vivo, mouse
Method: The growth of B16 melanoma in C57B mice is dependent upon neovascularization.
Using the growth of B16 melanoma cells in C57B mice, a recognized model for the evaluation of inhibitors of angiogenesis on the growth of cancers, the effects of subcutaneous, intraperitoneal and oral administration of squalamine were evaluated.
Based on the idea that tumor growth involves both the clonal expansion of a malignant cell along with the development of a supporting vascular supply, a combination of compound 1436 with squalamine was tested to determine whether it would achieve a synergistic effect on solid tumor growth. This concept was evaluated in the B16 melanoma model.
Animals were implanted with B16 melanoma followed by treatment with compound 1436 or 1256 administered in a combined schedule or separately. […] Thus, a combination of these two compounds achieves a therapeutic benefit in tumors dependent on neovascularization that may prevent metastatic spread.

human NHE1 = assay: internal pH recovery, PS120 fibroblasts transfected with human NHE1 (BCECF-AM); type: cell-based; details: 5 μg/ml; acid-preloaded by 40 mM NH4Cl
Method: as §1

[6] = test system: chick chorioallantoic membrane; assay: chorioallantoic membrane (CAM) model, capillary growth; type: in vivo
Description: The growing capillaries within the chorioallantoic membrane model (CAM model) have been used as a system in which to evaluate the effect of agents on their potential to inhibit new vessel growth. Neovascularization occurs most aggressively over the first week of embryonic development. Thereafter capillary growth is characterized by principally "elongation" rather than "de novo" formation.
In the standard assay, agents are applied locally to a region of the embryo over which neovascularization will occur. Agents are assessed by their ability to inhibit this process, as evaluated by visual examination about 7 days after application. […] The assay utilized is described in detail in Auerbach et al., Pharm. Ther. 51, 1991, 1-11.

[7] = test system: human umbilical venous endothelial cells; assay: LPS/TNF-α-induced neutrophil adherence to human umbilical venous endothelial cells; details: 10, 1.0 or 0.1 μg; three different subjects
Method: In these experiments, approximately 2×10^5 human umbilical venous cells (passage 2-6) were plated per well. The cells were grown in serum-free media overnight. For induction, either TNF-α (40 ng/ml) was added to endothelial cells for 6 hours prior to adding neutrophils or LPS (100 ng/ml) was added for 4-6 hours. […] After activation of the endothelial cells, approximately 50×10^6 neutrophils were added per well. The plates were gently rocked for 30 minutes at room temperature, followed by removal of the media and washing in serum-free media three times and then photographing of each well. […] A monoclonal Ab to ICAM-1 was a positive control.

[8] = test system: human foreskin fibroblasts; assay: growth inhibition of human foreskin fibroblasts in vitro; type: cell-based; details: 10 μg/ml
[9] = test system: human coronary artery smooth muscle; assay: proliferation of human coronary artery smooth muscle in vitro; type: cell-based; details: FIG. 15
Description: Aminosterols of the invention may also have utility in inhibiting the growth factor mediated proliferation of smooth muscle within the artery. Following coronary angioplasty, reocclusion commonly occurs, secondary to reparative proliferation of the vascular smooth muscle within the wall of the surgically manipulated blood vessel. This process generally takes place over the course of 7-10 days. To evaluate whether an agent could prevent the growth factor mediated proliferation of smooth muscle within the artery, compound 1436 was evaluated in vitro for its effect on the proliferation of human coronary artery smooth muscle. Results for compound 1436 are shown in FIG. 13, and those for squalamine are shown in FIG. 14, with FIG. 15 being a composite logarithmic plot.

Chain of rabbit NHE3 (P26432 30-832): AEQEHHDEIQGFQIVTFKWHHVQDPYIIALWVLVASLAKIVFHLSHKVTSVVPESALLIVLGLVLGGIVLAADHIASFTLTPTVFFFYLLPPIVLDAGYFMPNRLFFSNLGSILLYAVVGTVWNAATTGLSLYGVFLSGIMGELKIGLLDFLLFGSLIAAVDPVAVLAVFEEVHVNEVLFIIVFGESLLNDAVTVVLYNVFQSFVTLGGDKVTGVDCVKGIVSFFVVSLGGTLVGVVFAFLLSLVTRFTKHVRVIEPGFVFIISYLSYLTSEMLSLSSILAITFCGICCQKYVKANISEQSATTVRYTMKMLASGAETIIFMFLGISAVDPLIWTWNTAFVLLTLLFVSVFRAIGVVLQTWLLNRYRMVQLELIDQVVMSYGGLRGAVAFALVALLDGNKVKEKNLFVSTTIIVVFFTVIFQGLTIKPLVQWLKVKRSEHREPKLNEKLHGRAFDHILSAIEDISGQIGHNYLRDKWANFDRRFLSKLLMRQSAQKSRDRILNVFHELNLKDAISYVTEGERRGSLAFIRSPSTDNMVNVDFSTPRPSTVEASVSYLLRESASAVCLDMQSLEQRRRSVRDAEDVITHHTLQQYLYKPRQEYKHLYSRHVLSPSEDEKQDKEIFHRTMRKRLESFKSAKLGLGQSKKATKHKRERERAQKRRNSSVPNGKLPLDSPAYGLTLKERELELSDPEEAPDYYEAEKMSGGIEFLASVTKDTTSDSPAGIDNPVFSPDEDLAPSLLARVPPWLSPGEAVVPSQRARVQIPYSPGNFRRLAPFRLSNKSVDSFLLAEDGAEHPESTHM

Q: For `CC(C)[C@@H](CC[C@@H](C)[C@H]1CC[C@H]2[C@@H]3[C@H](O)C[C@H]4C[C@@H](NCCCNCCCCN)CC[C@]4(C)[C@H]3CC[C@]12C)OS(=O)(=O)O` [Squalamine, squalamine], which “time to death of tadpole” value [1] is on record?
A: The value was no more than 2 h.

Q: What about the “pharmacological response in tadpole” value ([1]; listed as Compound 1256 (Squalamine)) of the same molecule?
A: The value was “Vascular occlusion in fine capillaries of tail. No effect on vascular flow through hands or feet”.

Q: What about the “cytostatic activity against B16 in culture” value (Murine B16 melanoma) of the same molecule?
A: Its value is “minimal cytostatic activity against B16 in culture”.

Q: What about the “inhibition of new blood vessel formation” value ([2]; day 7) of the same molecule?
A: The value was “about 60%”.

Q: What about the “inhibition of new blood vessel formation” value ([2]; day 14) of the same molecule?
A: Its value is “about 60%”.

Q: And the “inhibition of NHE3” value (rabbit NHE3; acid-preloaded by 40 mM NH4Cl)?
A: The value was “inhibited NHE3 with respect to proton concentration at both Km and Vmax levels”.

Q: And the “resting pH” value (rabbit NHE3; cells not acid-preloaded)?
A: The value was “the resting pH of these cells was also inhibited”.

Q: And the “inhibition of rabbit NHE1” value (rabbit NHE1)?
A: Its value is “no inhibitory activity”.

Q: And the “suppression of melanoma 1205Lu growth” value (human melanoma 1205Lu; 10, 20, 40 mg/kg/d, after tumors reached about 0.1 ml)?
A: The value was “found to suppress the growth of melanoma 1205Lu in RAG-1 mice in a dose-dependent fashion”.

Q: And the “tumor growth after cessation of treatment” value (human melanoma 1205Lu; in vivo)?
A: The value was “tumor growth continued at a rate similar to untreated controls”.

Q: What about the “inhibition of blast transformation (in words)” value ([3]; 10 μg/ml) of the same molecule?
A: Its value is “Some effect was observed”.

Q: And the inhibition at 1 µg/mL ([3]; Homo sapiens, Lymphocyte, 1 μg/ml, read-out: inhibition of PHA-stimulated human lymphocytes (% control))?
A: The inhibition at 1 µg/mL was 3%.

Q: What about the inhibition at 5 µg/mL ([3]; Homo sapiens, Lymphocyte, 5 μg/ml, read-out: inhibition of PHA-stimulated human lymphocytes (% control)) of the same molecule?
A: The inhibition at 5 µg/mL was 8%.

Q: And the inhibition at 10 µg/mL ([3]; Homo sapiens, Lymphocyte, 10 μg/ml, read-out: inhibition of PHA-stimulated human lymphocytes (% control))?
A: Its inhibition at 10 µg/mL is 10%.

Q: What about the antibiotic activity [4] of the same molecule?
A: The antibiotic activity was “broad-spectrum antibiotic, killing bacteria, fungi and protozoa”.

Q: And the “effect on endothelial cord formation” value ([5]; 0.01 μg/ml)?
A: Its value is “-”.

Q: What about the “effect on endothelial cord formation” value ([5]; 0.1 μg/ml) of the same molecule?
A: Its value is “+”.

Q: What about the “effect on endothelial cord formation” value ([5]; 1.0 μg/ml) of the same molecule?
A: The value was “+”.

Q: What about the “effect on endothelial cord formation” value ([5]; 10.0 μg/ml) of the same molecule?
A: The value was “+”.

Q: And the “cell viability or proliferation” value ([5]; at these concentrations)?
A: The value was “does not appear to profoundly affect cell viability or proliferation”.

Q: And the “suppression of tumor volume” value (B16 melanoma; intraperitoneal)?
A: Its value is “a dose-dependent suppression of tumor volume was observed”.

Q: What about the “suppression of tumor volume” value (B16 melanoma; oral) of the same molecule?
A: Its value is “a dose-dependent suppression of tumor volume was observed”.

Q: What about the “body weight and hematologic parameters” value (B16 melanoma; s.c., i.p. or oral treatment) of the same molecule?
A: Its value is “no significant depression”.

Q: What about the “tumor growth, single agent” value (B16 melanoma; squalamine 15 mg/kg/day, compound 1436 alone in a tolerable schedule) of the same molecule?
A: The value was “Neither administration of squalamine at 15 mg/kg/day nor compound 1436 alone in a tolerable schedule could achieve this effect”.

Q: What about the “impact on tumor volume” value (B16 melanoma; squalamine alone 5 mg/kg/day) of the same molecule?
A: Its value is “no significant impact on tumor volume”.

Q: And the “suppression of tumor volume” value (B16 melanoma; subcutaneous)?
A: Its value is “a dose-dependent suppression of tumor volume was observed”.

Q: And the “inhibition of human NHE1” value (human NHE1)?
A: Its value is “no inhibitory activity”.

Q: What about the “amount resulting in inhibition of CAM vessel neovascularization” value ([6]; 3-day CAM) of the same molecule?
A: Its value is no more than 0.65 µg.

Q: What about the “inhibitory effect on 13-day old chick” value ([6]; ten times 0.65 μg) of the same molecule?
A: Its value is “no inhibitory effect”.

Q: What about the “inhibition of neutrophil adherence” value [7] of the same molecule?
A: Its value is “no inhibition”.

Q: And the “growth of fibroblast line” value [8]?
A: The value was “no effect on the growth”.

Q: What about the “suppression of growth (in words)” value [9] of the same molecule?
A: The value was “suppress in vitro the growth of human coronary artery smooth muscle”.
